For 87 compounds, melting point results are on record in a melting point compilation (Tetko et al.; mined from patent text by program, amines drawn as free bases though some values may be those of a salt).

By melting point is commonly meant the temperature of the solid-liquid transition. The compound `CCOC(=O)N1C(C)=CC(C(=O)OCC)(c2cccc(OCC3CO3)c2)C=C1C` (configuration not stated) gave a melting point of 116 °C.

With `CCn1cc(C(=O)NCc2ccc(Cl)cc2)c(=O)c2cc(C#CCOC(=O)c3cccc(CN4CCOCC4)c3)sc21`, the melting point fell in the range of 147 to 150 °C.

`COc1ccc2oc(C(=O)c3cccnc3F)cc2c1` had a melting point of 130 to 134 °C.

In turn, `CCCc1c(OCCCCCC(=O)O)ccc(C(C)=O)c1O` gave a melting point of 62 to 64 °C.

For the compound `Cc1cc(Nc2ccnc(Nc3ccc(S(=O)(=O)N(C)C4CCN(Cc5cnn(C)c5)CC4)cc3)n2)ccc1F`, the melting point is 125 to 150 °C.

`Cc1cc(C#N)cc(C(=O)Nc2ccc(F)cc2)n1` gave a melting point of 189 °C.

Turning to `COc1cc(F)c(CNCCc2ccc(O)cc2)cc1O`, the melting point was 160 to 162 °C.

`CC(C)C1(C)NC(c2ncc(CO)cc2C(=O)O)=NC1=O` (configuration not stated) returned a melting point of 170 to 172 °C.

On to `Cc1nc(N2CCc3ccccc3CC2)c(C#N)c(=O)n1NCC(F)(F)F`, for which the melting point lay in the range of 144 to 146 °C.

In turn, `O=C1CCC(c2ccc(-n3cnc(CO)c3)cc2)=NN1` came in with a melting point of 214 to 215 °C.

`Fc1ccc(-c2cc(C(C(F)(F)F)C(F)(F)F)[nH]c2-c2ccc(F)cc2)cc1` gave a melting point of 123 to 124 °C.

Compound `COC(=O)CC(O)CC(O)C=Cc1c2c(nn1-c1ccc(F)cc1)C(Cc1ccc(-c3ccccc3)cc1)CCC2` (racemic) came in with a melting point of 118 to 119 °C.

`CCOC(=O)c1oc2c(C(=O)c3ccccc3)ccc(OC)c2c1C` had a melting point of 137 to 139 °C.

On to `COc1cc2c(c(Cl)c1Cl)C(=O)C(C(C)C)C2` (configuration not stated), for which the melting point was in the range of 118 to 119 °C.

`O=C(O)Cc1ccc(OCCNC(=O)[C@@H]2Cc3ccccc3N2S(=O)(=O)c2ccc(Oc3ccc(F)cc3)cc2)cc1` gave a melting point of 65 °C.

For the compound `CCC(=O)OC(CC)c1nc2c(C(F)(F)F)cccc2c(O)c1C(=O)Nc1ccccn1` (configuration not stated), the melting point stood at 204 °C.

For the compound `COc1ccc(C2=NN(c3ccc(O)cc3)C(=O)C(C)(C)C2)cc1OC`, the melting point lay within 176 to 178 °C.

Compound `CC(=O)Oc1ccccc1C(=O)N1CCN(C(=O)c2ccccc2OC(C)=O)CC1` returned a melting point of 175 to 177 °C.

`CN(C)c1ccc(C=NO)c([N+](=O)[O-])c1` gave a melting point of 140 to 143 °C.

`COc1cc(-c2ccc(O)c(C3(C)CCCCC3)c2)cc(C=C2SC(N(C)C)=NC2=O)c1O` showed a melting point of 277 to 279 °C.

`CCN(CC)CC1CCCCN1CC(=O)N1c2ccccc2C(=O)Nc2ccc(Cl)nc21` (configuration not stated): the melting point was 191 to 192 °C.

For the compound `O=C(O)C1CCCc2c(-c3ccc(Cl)c(Cl)c3)noc2C1` (configuration not stated), the melting point was in the range of 183 to 185 °C.

Turning to `CCOC(=O)c1cn(C(=O)c2ccccc2)c2sc(-c3ccc(OC)cc3)c(C)c2c1=O`, the melting point was 110 to 112 °C.

The compound `O=C(CN1C(=O)C(NC(=O)OCc2ccccc2)N=C(c2ccccc2)c2ccccc21)NCc1ccccc1` (configuration not stated) displayed a melting point of 204 to 205 °C.

The compound `Nc1ccc(S(=O)(=O)Nc2cc(Br)nc(Br)c2)cc1` registered a melting point of 220 to 222 °C.

Consider `CCn1ncc2c1ncc1c(=O)n(C)c3cc(C)nn3c12`, for which the melting point was in the range of 206 to 207 °C.

`O=C(c1ccc([N+](=O)[O-])cc1)N1Cc2ccccc2Cc2cc(Cl)ccc21` returned a melting point of 198 to 201 °C.

Regarding `COC(=O)c1c(F)cc(O)cc1F`, the melting point is 178 to 180 °C.

For `O=C(O)c1cnn2c(C(F)F)cc(-c3ccc(Cl)cc3)nc12`, the melting point came out at 232 °C.

For `COc1ccnc(CCc2nc3cc(-c4ccc(S(=O)(=O)N5CCN(c6ccc(C#N)cc6)CC5)cc4)cnc3[nH]2)c1`, the melting point was 217 to 219 °C.

With `Cc1cc(C)n(C)c(=O)c1C#N`, the melting point was in the range of 202 to 205 °C.

Take `O=C1C2CCCCC2C(=O)N1c1ccc(F)cc1F` (configuration not stated): the melting point fell in the range of 117 to 123 °C.

Regarding `CC(=O)OCCn1c2ccccc2c2ccccc21`, the melting point was in the range of 73 to 74.5 °C.

Compound `CN1C(=O)C=C(c2ccc([N+](=O)[O-])cc2)C1=O` displayed a melting point of 163 to 166 °C.

Consider `CN(CCc1[nH]c2ccccc2c1-c1ccccc1)C(=O)CCl`, for which the melting point lay in the range of 135 to 138 °C.

The compound `COc1cc(NCCCCCCN2CCN(C(=O)OCc3ccccc3)CC2)c2nccc(C)c2c1` showed a melting point of 73 to 73.5 °C.

Regarding `Clc1c[nH]c2ncnc(N3CCCCC3)c12`, the melting point lay in the range of 170 to 172 °C.

As for `CS(=O)(=O)Nc1ccc(NC(=O)CCCc2ccc(N=C(N)c3cccs3)cc2)cc1`, the melting point was in the range of 187 to 188 °C.

Regarding `COC(=O)C(=CN(C)C)C(=O)C=Cc1ccc(Cl)cc1`, the melting point fell in the range of 78 to 80 °C.

`COc1cc(C=CC(=O)OC2C(O)C3CC(OC(=O)c4cc(OC)c(OC)c(OC)c4)CC2[N+]3(C)[O-])cc(OC)c1OC` (configuration not stated) came in with a melting point of 118 to 121 °C.

For the compound `O=c1c(C(F)(F)F)cn(C2CC(O)C(COCc3ccccc3)O2)c(=O)n1C1CCCO1` (configuration not stated), the melting point fell in the range of 145 to 147 °C.

`CS(=O)(=O)c1cc2c(c(C(=O)O)c1)OCCO2` came in with a melting point of 247 to 249 °C.

For the compound `CNCc1nc(CSCCNC(=C[N+](=O)[O-])NC)cs1`, the melting point fell in the range of 105 to 107 °C.

For `Cc1sc2cc(O)ccc2c1C1=C(c2c(C)sc3cc(O)ccc23)C(F)(F)C(F)(F)C1(F)F`, the melting point is 236 to 237 °C.

In turn, `O=C(Nc1ncc(C(=O)NCCO)s1)c1cn(Cc2ccc(Cl)c(Cl)c2)nn1` came in with a melting point of 275 °C.

As for `N=C(N)c1cccc(CN(C(=O)Nc2ccc(-c3ccccc3S(N)(=O)=O)cc2)c2ccccc2)c1`, the melting point was 201 to 202 °C.

Compound `O=C(O)c1c(-c2ccccc2)c2cc(Cl)c(Cl)cc2oc1=O` had a melting point of 233 to 234 °C.

Turning to `CCOC(=O)C(=O)c1csc(NC(=O)Nc2ccc(F)cc2)n1`, the melting point was 220 to 223 °C.

`COc1ccc2c(=O)c3[nH]c(C(=O)O)cc(=O)c3oc2c1` yielded a melting point of 253 to 254 °C.

For `CC(C)c1nc2ccccc2c(-c2ccc(F)cc2)c1CO`, the melting point lay within 132 to 134 °C.

`CC(=O)OCc1nc(Cl)cc(N2CCCC2)n1`: the melting point was 101 to 103 °C.

As for `C=CC(=Cc1ccccc1)N(C)C`, the melting point fell in the range of 72 to 74 °C.

`Cc1cc(-n2cncn2)cc(C=O)c1N`: the melting point was 209 to 211 °C.

Turning to `CC1(C)OC(=O)C(Oc2ccc3sccc3c2)=C1c1ccc(S(C)(=O)=O)cc1`, the melting point was in the range of 150 to 152 °C.

The compound `O=C(Cn1c(-c2cccc(Br)c2)nc2cccnc21)N1CCCCC1` displayed a melting point of 157 to 158 °C.

`CCOC(=O)C1=C(C)NC(CO)=C(C(=O)OCC)C1c1cccc(O)c1` (configuration not stated) showed a melting point of 162 to 163 °C.

Turning to `Cc1sc2cc3ccccc3c(-c3ccc(OS(=O)(=O)c4ccc(C(=O)O)c(O)c4)c(C4CCCC4)c3)c2c1C`, the melting point was in the range of 230 to 237 °C.

Turning to `CCCCOc1c(N(C)C(=O)OC(C)(C)C)n(CC(C)C)c(=O)c2ccc(-c3cnco3)cc12`, the melting point lay in the range of 152 to 153 °C.

On to `O=C(CCCN1CCN(c2cc3ccccc3cn2)CC1)c1cccs1`, for which the melting point was in the range of 94 to 100 °C.

The compound `CCN(CC)C(=O)Oc1nc(C)c2cc(OC)c(OC)cc2c1NC(N)=O` displayed a melting point of 215 to 216 °C.

Regarding `CCn1cc(C(=O)O)c(=O)c2c(F)c(F)c(N3CCNC(c4ccsc4)C3)c(F)c21` (configuration not stated), the melting point fell in the range of 221 to 222 °C.

Take `CCOC(=O)CC(=O)c1cc(F)c(F)c(Cl)c1Cl`: the melting point was 52 to 53 °C.

Compound `Cc1cc(Oc2ncc(C(F)(F)F)cc2Cl)nn1C(=S)NCc1ccc(Cl)cc1` returned a melting point of 119 to 121 °C.

On to `CCOC(=O)c1ccc(C(F)(F)F)c(Br)n1`, for which the melting point is 40 to 40.5 °C.

The compound `Cc1nnc(C=O)n1-c1ccc(Cl)cc1C(=O)c1ccccc1` yielded a melting point of 105 to 138 °C.

In turn, `COP(=O)(Cc1ccc(CP(=O)(OC)OC)cc1)OC` displayed a melting point of 106 °C.

Regarding `CC(C)(C)c1cc(/C=C(\C#N)C(N)=S)cc(C(C)(C)C)c1O`, the melting point was 210 °C.

`OC1(c2ccc(Cl)c(Cl)c2)CCN(CCCOc2ccc(Cl)c(Cl)c2)CC1` had a melting point of 118 °C.

For the compound `C=CCCCn1nnc(-c2ccc3[nH]c(CCCC)nc(=O)c3c2)n1`, the melting point stood at 130 °C.

`CS(=O)(=O)c1ccc(C=C2/C(=N/O)CCc3ccccc32)cc1` gave a melting point of 165 to 166 °C.

As to `CC(=O)SC(C)C(Cc1ccccc1)C(=O)Nc1cccc(C(=O)O)c1` (configuration not stated), the melting point lay in the range of 180 to 182 °C.

Compound `CCn1nnc(NC(=O)C2c3ccccc3Cc3ccccc32)n1` gave a melting point of 206 to 207 °C.

Compound `COC(=O)[C@@H](NC(=O)[C@H](CC(C)C)NC(=O)[C@@H](NC(=O)OCc1ccccc1)C(C)C)[C@@H](C)O` registered a melting point of 217 to 218 °C.

In the case of `Nc1nc(Cl)nc2c1ncn2C1OC(COC2CC2)C(O)C1O` (configuration not stated), the melting point is 122 to 124 °C.

For the compound `FC(F)(F)c1ccc(C=Nc2c3c(nc4ccccc24)CCCC3)cc1`, the melting point lay within 203 to 205 °C.

`CCCN1CC(C(=O)OC)CC2c3cccc4[nH]cc(c34)CC21` (configuration not stated) had a melting point of 202 to 204 °C.

As for `S=C(Nc1ccc(Cl)cc1)NC1CC2C3CC4C2C4C13` (configuration not stated), the melting point was in the range of 168 to 170 °C.

`COc1cc2c(cc1F)CC(C)C2=O` (configuration not stated) had a melting point of 76 to 78 °C.

Take `CS(=O)(=O)Nc1cc(NC(=N)c2ccccc2)cc(NC(=O)/C=C/c2ccccc2C(F)(F)F)c1`: the melting point lay in the range of 150 to 155 °C.

`CCNC(=O)c1ccc(N2CCN(Cc3cc4c(c(OCC)c3)OC(C)C(=O)N4)CC2)c(C)c1` (configuration not stated): the melting point worked out at 200 °C.

The compound `C=C(c1ccc(C(=O)OC)cc1)c1ccc2c(c1)C(C)(C)CCC2(C)C` showed a melting point of 117 to 118 °C.

Regarding `COC(=O)CNc1ccc(C(C)C)cc1`, the melting point lay in the range of 35 to 36 °C.

In turn, `CC(F)(F)c1ccc2c(c1)C=C(C(=O)O)C(C(F)(F)F)O2` (configuration not stated) gave a melting point of 156 to 158 °C.

Turning to `COc1ccc(Nc2ccc(O)cc2)c(CO)c1`, the melting point lay within 96.5 to 97 °C.

Turning to `CCOC(=O)c1ccc(-c2cccc(-c3ccc4c(c3)C(C)(C)CCC4(C)C)c2O)cc1`, the melting point stood at 121 °C.

Compound `CCCN(CCC)c1nc2cc3c(cc2s1)CC(N)C3` (configuration not stated) showed a melting point of 127 to 128 °C.

In the case of `CCCn1c(=O)c2[nH]c(-c3ccc(C=C(C(=O)OCC)C(=O)OCC)o3)nc2n(CCC)c1=O`, the melting point was in the range of 220 to 222 °C.
